Each structure is given as a SMILES string.

For data set [1], the system named is A2058 cells. As to the kind of experiment: Cell cycle G2/M arrest Cytospin assay to detect tubulin binding (off-target). As to conditions: 5 μM test item, 24 hours. Details: key: 0=no condensed DNA observed (indicating no off target activity); 1=(indicating weak off target activity); 2=(indicating medium off target activity); 3=large amount of condensed DNA observed (indicating strong off-target activity). Type of data set: cell-based. How it is done:
The off-target effect (evidence of tubulin binding) was measured as follows.
Cell cycle G2/M arrest Cytospin assay to detect tubulin binding (off-target) binding activities of MAPP derivatives: 5×10^5 cells A2058 cells were plated in 6-well cluster, with 2 mL of DMEM (high Glucose containing 1% sodium pyruvate, 1% glutamin and 10% FCS). 18 hours later, the test items were added at a concentration of 5 μM (spiking 1 μL of a 10 mM solution of the test item). 24 hours later, the cells were trypsinized and transferred into a 15 mL conical tube. Cells are then pelleted by centrifugation, and resuspended with PBS/0 (containing 10% FCS). Cells are counted with a CASY counter, and each samples equilibrated to 1×10^6 cells/mL. […] The staining was visually assessed for the presence of condensed DNA and given a score where 0=no condensed DNA observed (indicating no off target activity), 1=(indicating weak off target activity), 2=(indicating medium off target activity), 3=large amount of condensed DNA observed (indicating strong off-target activity).

In data set [2] the target is T1, human PI3Kdelta p110 catalytic subunit (Rat-1 pBABEpuro Myr-HA-hp110 delta) (Homo sapiens, UniProt O00329).
T1 construct: Myr (myristoylation signal) (N); HA (N); expressed in transfected cells; host or cells: Rat-1
The data set can be described thus: Cellular assay PI3Kdelta (p-Akt(S473) SureFire, Rat-1_PI3Kdelta cells). The class given is cell-based. To be noted: 1 h compound treatment, read-out: Rat1-PI3Kd/ IC50. An excerpt:
AlphaScreen (Amplified Luminescent Proximity Homogeneous Assay, ALPHA, Perkin Elmer) is a non-radioactive bead-based proximity assay technology to study biomolecular interactions in a homogenous microtiter plate format. The brand name SureFire denotes AlphaScreen assays that are adapted to quantify the phosphorylation of endogenous cellular proteins in cell lysates, by using matched antibody pairs, which consist of an anti-phospho-kinase and an anti-kinase antibody. The assay allows characterization of kinase signaling in cells as well as measurement of kinase inhibitor effects. The AlphaScreen technology provides several advantages over standard assay techniques such as ELISA, as it avoids time-consuming washing procedures and reduces plate handling. Furthermore, it is miniaturizable at least to a 384-well format and provides sensitivity down to the femtomolar range, dependent on the affinity of the antibodies included in the individual AlphaScreen SureFire assay kit. High sensitivity is reached by an intrinsic amplification mechanism, which involves production of singlet oxygen molecules. SureFire assay kits are commercially available for specific targets and include pairs of validated antibodies (PerkinElmer). This report describes common procedures applied for AlphaScreen SureFire assays and respective semi-automated steps for routine kinase inhibitor profiling in cell-based assays.
The Rat-1 cell lines stably overexpressing activated PI3K class I isoforms Rat-1 pBABEpuro Myr-HA-hp110 delta (Rat-1_PI3Kdelta) and Rat-1 pBABEpuro Myr-HA-hp110alpha (Rat-1_PI3Kalpha) and Rat-1 pBABEpuro Myr-HA-hp110 beta (Rat-1_PI3beta) were prepared as described (Maira S M, Stauffer F, Brueggen J, Furet P, Schnell C, Fritsch C, Brachmann S, Chène P, de Pover A, Schoemaker K, Fabbro D, Gabriel D, Simonen M, Murphy L, Finan P, Sellers W, García-Echeverría C (2008), Mol Cancer Ther. 7:1851-63 and Maira S M, Pecchi S, Brueggen J, Huh K, Schnell C, Fritsch C, Nagel T, Wiesmann M, Brachmann S, Dorsch M, Chène P, Schoemaker K, De Pover A, Menezes D, Fabbro D, Sellers W, García-Echeverría C, Voliva C F (2011), Mol. Cancer Ther., accepted). All cell lines were cultivated in complete growth medium (DMEM high glucose, 10% (v/v) fetal bovine serum, 1% (v/v) MEM NEAA, 10 mM HEPES, 2 mM L-glutamine, puromycin (10 μg/mL for Rat-1_PI3Kdelta and Rat-1_PI3Kalpha, 4 ug/mL for Rat-1_PI3beta), 1% (v/v) Pen/Strep) to 90% confluency at 37° C./5% CO2/90% humidity in a humidified CO2 incubator and were split twice a week.
The following materials were used for p-AKT(S473) detection in Rat-1 cell lysates: Dulbecco's modified Eagle's medium (DMEM) high glucose (Gibco Invitrogen, Basel, Switzerland, Cat. No. 41965), Heat Inactivated Fetal Bovine Serum, Qualified (HI FBS; Gibco Invitrogen, Basel, Switzerland, Lot. No. 16140), MEM non essential amino acids (NEAA; Gibco Invitrogen, Basel, Switzerland, Cat. No. 11140), HEPES (Gibco Invitrogen, Basel, Switzerland, Cat. No. 15630), Penicillin/Streptomycin (Pen/Strep, 100×; Gibco Invitrogen, Basel, Switzerland, Cat. No. 15140-122), L-Glutamine (Gibco Invitrogen, Basel, Switzerland, Cat. No. 25030), Puromycin (Sigma Aldrich, Buchs, Switzerland, Cat. No. P9620), DMSO (MERCK, Dietikon, Switzerland, Cat. No. 8.02912.2500), H2O, MilliQ-H2O unless otherwise stated (MILLIPORE QGARDOOR1, Millipore, Zug, Switzerland), Bovine serum albumine (BSA; Sigma Aldrich, Buchs, Switzerland Cat. No. A8412), SureFire p-Akt 1/2 (Ser473) Assay Kit (PerkinElmer, Schwerzenbach, Switzerland, Cat. No. TGRAS50K).
The p-Akt(S473) SureFire assay measures the phosphorylation of endogenous cellular Akt 1/2 at Ser473 in cell lysates. Using Rat-1 cells stably expressing myr-HA-tagged versions of the human PI3Kdelta, PI3Kalpha, or PI3Kbeta p110 catalytic subunit isoforms, the assay was developed as a two-plate protocol in a 384-well format.

T1 sequence (O00329 whole entry): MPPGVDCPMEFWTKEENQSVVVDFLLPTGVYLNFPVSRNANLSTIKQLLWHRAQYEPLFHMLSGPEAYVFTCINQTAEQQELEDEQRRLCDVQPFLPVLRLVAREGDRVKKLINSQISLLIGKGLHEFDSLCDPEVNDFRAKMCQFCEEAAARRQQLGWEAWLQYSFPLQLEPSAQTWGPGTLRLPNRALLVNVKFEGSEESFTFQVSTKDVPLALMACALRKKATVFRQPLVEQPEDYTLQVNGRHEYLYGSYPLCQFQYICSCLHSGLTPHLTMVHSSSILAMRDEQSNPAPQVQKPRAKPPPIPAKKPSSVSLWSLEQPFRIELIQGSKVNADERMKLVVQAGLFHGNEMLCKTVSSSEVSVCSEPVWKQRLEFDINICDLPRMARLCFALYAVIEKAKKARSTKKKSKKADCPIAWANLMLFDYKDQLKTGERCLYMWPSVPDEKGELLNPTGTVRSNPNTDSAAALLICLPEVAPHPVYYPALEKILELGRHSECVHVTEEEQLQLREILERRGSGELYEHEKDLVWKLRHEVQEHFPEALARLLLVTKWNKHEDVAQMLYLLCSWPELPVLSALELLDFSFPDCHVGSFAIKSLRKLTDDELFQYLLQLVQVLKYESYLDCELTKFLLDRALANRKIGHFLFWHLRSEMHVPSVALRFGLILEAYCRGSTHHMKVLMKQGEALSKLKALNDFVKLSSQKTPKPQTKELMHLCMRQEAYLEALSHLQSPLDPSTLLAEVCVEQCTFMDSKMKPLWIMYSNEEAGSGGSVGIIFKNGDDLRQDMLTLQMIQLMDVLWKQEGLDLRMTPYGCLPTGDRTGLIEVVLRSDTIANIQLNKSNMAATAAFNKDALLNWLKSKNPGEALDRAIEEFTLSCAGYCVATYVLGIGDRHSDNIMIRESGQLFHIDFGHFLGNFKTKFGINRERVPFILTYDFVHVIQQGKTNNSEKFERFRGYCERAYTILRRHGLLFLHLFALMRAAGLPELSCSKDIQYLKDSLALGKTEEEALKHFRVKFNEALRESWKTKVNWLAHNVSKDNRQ
T1 sequence (Q63787 whole entry partner): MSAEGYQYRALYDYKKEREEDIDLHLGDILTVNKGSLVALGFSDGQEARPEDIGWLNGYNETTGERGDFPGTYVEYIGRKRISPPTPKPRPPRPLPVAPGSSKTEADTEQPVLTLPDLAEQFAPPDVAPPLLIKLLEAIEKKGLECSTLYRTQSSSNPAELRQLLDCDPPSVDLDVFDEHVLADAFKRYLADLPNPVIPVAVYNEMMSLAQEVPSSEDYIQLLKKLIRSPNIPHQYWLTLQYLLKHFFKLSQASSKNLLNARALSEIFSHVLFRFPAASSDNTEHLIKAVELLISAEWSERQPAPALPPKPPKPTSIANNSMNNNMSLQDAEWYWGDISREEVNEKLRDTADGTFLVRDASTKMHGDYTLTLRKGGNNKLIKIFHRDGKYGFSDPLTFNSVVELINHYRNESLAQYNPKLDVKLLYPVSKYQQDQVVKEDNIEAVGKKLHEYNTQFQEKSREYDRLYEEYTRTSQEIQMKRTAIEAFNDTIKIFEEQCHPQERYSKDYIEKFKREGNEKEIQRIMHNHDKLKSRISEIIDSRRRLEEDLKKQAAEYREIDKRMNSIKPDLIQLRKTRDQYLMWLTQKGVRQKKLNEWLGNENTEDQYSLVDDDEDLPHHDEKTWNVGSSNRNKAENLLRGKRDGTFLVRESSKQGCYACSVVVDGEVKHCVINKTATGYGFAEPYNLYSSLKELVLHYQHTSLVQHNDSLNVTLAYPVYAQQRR

As to `C[C@H]1C(CC(C)(C)O)OC(=O)N1c1cc(-c2cnc(N)nc2C(F)(F)F)nc(N2CCOCC2)n1` (mixture of isomers) [Example 26, (4S,5R)- and (4S,5S)-3-(2′-amino-2-morpholino-4′-(trifluoromethyl)-[4,5′-bipyrimidin]-6-yl)-5-(2-hydroxy-2-methylpropyl)-4-methyloxazolidin-2-one], the “Score (condensed DNA, G2/M arrest; off-target tubulin binding)” value (shortened to “Score”) in data set [1] came out at 0. Further, the IC50 in data set [2] is 11 nM.

With `CC1(CO)COC(=O)N1c1cc(-c2cnc(N)nc2C(F)(F)F)nc(N2CCOCC2)n1` (racemic) [Example 3, 3-(2′-amino-2-morpholino-4′-(trifluoromethyl)-4,5′-bipyrimidin-6-yl)-4-(hydroxymethyl)-4-methyloxazolidin-2-one], the “Score” value in data set [1] is reported as 0. In data set [2], the IC50 was 73 nM. For `Nc1ncc(-c2cc(N3C(=O)O[C@@H]4[C@@H](O)CC[C@@H]43)nc(N3CCOCC3)n2)c(C(F)(F)F)n1` (racemic) [Example 22, (3aR*,6R*,6aR*)-3-(2′-Amino-2-morpholino-4′-(trifluoromethyl)-[4,5′-bipyrimidin]-6-yl)-6-hydroxyhexahydro-2H-cyclopenta[d]oxazol-2-one], in that order: 0 and 27 nM.

`Nc1ncc(-c2cc(N3C(=O)OC4C(O)CCC43)nc(N3CCOCC3)n2)c(C(F)(F)F)n1` (single isomer, unassigned) [Example 22A]: the IC50 in data set [2] was 27 nM. With `Nc1ncc(-c2cc(N3C(=O)OC4C(O)CCC43)nc(N3CCOCC3)n2)c(C(F)(F)F)n1` (single isomer, unassigned) [Example 22B], the IC50 in data set [2] was 5 nM. On to `C[C@@H](O)C[C@H]1OC(=O)N(c2cc(-c3cnc(N)nc3C(F)(F)F)nc(N3CCOCC3)n2)[C@H]1C` (single isomer, unassigned) [Example 24], for which the “Score” value in data set [1] turned out to be 0. Also, the IC50 in data set [2] was determined as 7 nM. As for `C[C@H](O)CC1OC(=O)N(c2cc(-c3cnc(N)nc3C(F)(F)F)nc(N3CCOCC3)n2)[C@H]1C` (single isomer, unassigned) [Example 25], the “Score” value in data set [1] was 0. In addition, in data set [2], the IC50 is 13 nM. For `C[C@H]1COC(=O)N1c1cc(-c2cnc(N)nc2C(F)(F)F)nc(N2CCOCC2)n1` [Example 1, (S)-3-(2′-Amino-2-morpholin-4-yl-4′-trifluoromethyl-[4,5′]bipyrimidinyl-6-yl)-4-methyl-oxazolidin-2-one], in that order: 0 and 27 nM. For the compound `CC1(C)OC(=O)N(c2cc(-c3cnc(N)nc3C(F)(F)F)nc(N3CCOCC3)n2)[C@H]1CO` [Example 2, (S)-3-(2′-Amino-2-morpholin-4-yl-4′-trifluoromethyl-[4,5′]bipyrimidinyl-6-yl)-4-hydroxymethyl-5,5-dimethyl-oxazolidin-2-one], the IC50 in data set [2] came out at 81 nM. Regarding `Nc1ncc(-c2cc(N3C(=O)O[C@H]4CCCC[C@@H]43)nc(N3CCOCC3)n2)c(C(F)(F)F)n1` [Example 4, (3aS,7aS)-3-(2′-Amino-2-morpholin-4-yl-4′-trifluoromethyl-[4,5′]bipyrimidinyl-6-yl)-hexahydro-benzooxazol-2-one], the “Score” value in data set [1] turned out to be 0. Besides, the IC50 in data set [2] was determined as 13 nM. For `COC[C@H]1COC(=O)N1c1cc(-c2cnc(N)nc2C(F)(F)F)nc(N2CCOCC2)n1` [Example 5, (S)-3-(2′-Amino-2-morpholin-4-yl-4′-trifluoromethyl-[4,5′]bipyrimidinyl-6-yl)-4-methoxymethyl-oxazolidin-2-one], in that order: 0 and 23 nM. For `C[C@@H]1OC(=O)N(c2cc(-c3cnc(N)nc3C(F)(F)F)nc(N3CCOCC3)n2)[C@H]1CO` [Example 6], in that order: 0 and 37 nM. For `[2H]C1([2H])OC([2H])([2H])C([2H])([2H])N(c2nc(-c3cnc(N)nc3C(F)(F)F)cc(N3C(=O)O[C@H](C)[C@@H]3CO)n2)C1([2H])[2H]` [Example 8], in that order: 0 and 54 nM.

As for `Nc1ncc(-c2cc(N3C(=O)OC[C@@H]3CCO)nc(N3CCOCC3)n2)c(C(F)(F)F)n1` [Example 9, (S)-3-(2′-Amino-2-morpholin-4-yl-4′-trifluoromethyl-[4,5′]bipyrimidinyl-6-yl)-4-(2-hydroxy-ethyl)-oxazolidin-2-one], the IC50 in data set [2] amounted to 78 nM. `C[C@H]1OC(=O)N(c2cc(-c3cnc(N)nc3C(F)(F)F)nc(N3CCOC[C@@H]3C)n2)[C@H]1CO` [Example 10, (4S,5R)-3-[2′-Amino-2-((S)-3-methyl-morpholin-4-yl)-4′-trifluoromethyl-[4,5′]bipyrimidinyl-6-yl]-4-hydroxymethyl-5-methyl-oxazolidin-2-one]: the “Score” value in data set [1] is given as 0. Also, the IC50 in data set [2] came to 52 nM.

For the compound `Nc1ncc(-c2cc(N3CCOC3=O)nc(N3CCOCC3)n2)c(C(F)(F)F)n1` [Example 11, 3-(2′-Amino-2-morpholin-4-yl-4′-trifluoromethyl-[4,5′]bipyrimidinyl-6-yl)-oxazolidin-2-one, reference compound], the “Score” value in data set [1] turned out to be 3. The IC50 in data set [2] was 138 nM. Taken in the same sequence, the figures for `C[C@H]1OC(=O)N(c2cc(-c3cnc(N)nc3C(F)(F)F)nc(N3CCOCC3)n2)[C@H]1COC=O` [Example 12, Formic acid (4S,5R)-3-(2′-amino-2-morpholin-4-yl-4′-trifluoromethyl-[4,5′]bipyrimidinyl-6-yl)-5-methyl-2-oxo-oxazolidin-4-ylmethyl ester] were 0 and 92 nM. Taken in the same sequence, the figures for `C[C@H]1COCCN1c1nc(-c2cnc(N)nc2C(F)(F)F)cc(N2C(=O)OC[C@@H]2C)n1` [Example 13, (S)-3-[2′-Amino-2-((S)-3-methyl-morpholin-4-yl)-4′-trifluoromethyl-[4,5′]bipyrimidinyl-6-yl]-4-methyl-oxazolidin-2-one] were 0 and 42 nM.

The values above are taken from patent US8865894B2, “Oxazolidin-2-one compounds and uses thereof” (Novartis AG, priority 2012, dated 2014).
